Experimental data taken from the supplement of paper PMC10307832.

How the values were obtained:
Test in all cases: relative viability (nuclei count vs DMSO), 5 days (fraction); higher = more cells survive
LC-2-ad = tested on: LC-2-ad
Procedure, shortened: (§1)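 The day after seeding in 1536-well plates, lung cancer cell lines were treated by pin tool with a single drug, or with a fixed anchor-drug dose together with five library-drug doses (not always all listed) in √10 steps. After 5 days, a combined fix-and-stain solution (final 0.05% Triton X-100, 1% formaldehyde, 1 ug/ml Hoechst) was added. Nuclei counted on 4× images gave relative viability as treated counts over vehicle counts, reported as the median of duplicate plates.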

A-427 = tested on: A-427
Procedure, shortened: as §1

NCI-H1944 = tested on: NCI-H1944
Procedure, shortened: as §1

PC-3 [JPC-3] = tested on: PC-3 [JPC-3]
Procedure, shortened: as §1

LCLC-97TM1 = tested on: LCLC-97TM1
Procedure, shortened: as §1

NCI-H1915 = tested on: NCI-H1915
Procedure, shortened: as §1

NCI-H441 = tested on: NCI-H441
Procedure, shortened: as §1

NCI-H661 = tested on: NCI-H661
Procedure, shortened: as §1

NCI-H460 = tested on: NCI-H460
Procedure, shortened: as §1

BEN = tested on: BEN
Procedure, shortened: as §1

NCI-H1650 = tested on: NCI-H1650
Procedure, shortened: as §1

CAL-12T = tested on: CAL-12T
Procedure, shortened: as §1

NCI-H2023 = tested on: NCI-H2023
Procedure, shortened: as §1

NCI-H1651 = tested on: NCI-H1651
Procedure, shortened: as §1

NCI-H650 = tested on: NCI-H650
Procedure, shortened: as §1

NCI-H520 = tested on: NCI-H520
Procedure, shortened: as §1

NCI-H2087 = tested on: NCI-H2087
Procedure, shortened: as §1

NCI-H596 = tested on: NCI-H596
Procedure, shortened: as §1

201T = tested on: 201T
Procedure, shortened: as §1

H3255 = tested on: H3255
Procedure, shortened: as §1

O=c1cc(N2CCOCC2)oc2c(-c3cccc4c3sc3ccccc34)cccc12 + Nc1nc2[nH]cc(CCc3ccc(C(=O)N[C@@H](CCC(=O)O)C(=O)O)cc3)c2c(=O)[nH]1 [Pemetrexed] (partner 0.2 µM)
relative viability (LC-2-ad; first compound 0.01 µM): 0.267 | relative viability (LC-2-ad; first compound 0.03162 µM): 0.284 | relative viability (LC-2-ad; first compound 0.1 µM): 0.282 | relative viability (LC-2-ad; first compound 0.3162 µM): 0.279 | relative viability (LC-2-ad; first compound 1 µM): 0.304 | relative viability (A-427; first compound 0.01 µM): 0.944 | relative viability (A-427; first compound 0.03162 µM): 1.01 | relative viability (A-427; first compound 0.1 µM): 0.954 | relative viability (A-427; first compound 0.3162 µM): 0.993 | relative viability (A-427; first compound 1 µM): 0.945 | relative viability (NCI-H1944; first compound 0.01 µM): 0.691 | relative viability (NCI-H1944; first compound 0.03162 µM): 0.674 | relative viability (NCI-H1944; first compound 0.1 µM): 0.624 | relative viability (NCI-H1944; first compound 0.3162 µM): 0.589 | relative viability (NCI-H1944; first compound 1 µM): 0.635 | relative viability (PC-3 [JPC-3]; first compound 0.01 µM): 1.09 | relative viability (PC-3 [JPC-3]; first compound 0.03162 µM): 1.14 | relative viability (PC-3 [JPC-3]; first compound 0.1 µM): 1.05 | relative viability (PC-3 [JPC-3]; first compound 0.3162 µM): 1.1 | relative viability (PC-3 [JPC-3]; first compound 1 µM): 1.1 | relative viability (LCLC-97TM1; first compound 0.01 µM): 0.189 | relative viability (LCLC-97TM1; first compound 0.03162 µM): 0.162 | relative viability (LCLC-97TM1; first compound 0.1 µM): 0.202 | relative viability (LCLC-97TM1; first compound 0.3162 µM): 0.162 | relative viability (LCLC-97TM1; first compound 1 µM): 0.177 | relative viability (NCI-H1915; first compound 0.01 µM): 0.495 | relative viability (NCI-H1915; first compound 0.03162 µM): 0.534 | relative viability (NCI-H1915; first compound 0.1 µM): 0.486 | relative viability (NCI-H1915; first compound 0.3162 µM): 0.441 | relative viability (NCI-H1915; first compound 1 µM): 0.486 | relative viability (NCI-H441; first compound 0.01 µM): 0.256 | relative viability (NCI-H441; first compound 0.03162 µM): 0.272 | relative viability (NCI-H441; first compound 0.1 µM): 0.299 | relative viability (NCI-H441; first compound 0.3162 µM): 0.276 | relative viability (NCI-H441; first compound 1 µM): 0.235 | relative viability (NCI-H661; first compound 0.01 µM): 0.867 | relative viability (NCI-H661; first compound 0.03162 µM): 0.898 | relative viability (NCI-H661; first compound 0.1 µM): 0.95 | relative viability (NCI-H661; first compound 0.3162 µM): 0.925 | relative viability (NCI-H661; first compound 1 µM): 0.892 | relative viability (NCI-H460; first compound 0.01 µM): 0.0597 | relative viability (NCI-H460; first compound 0.03162 µM): 0.0598 | relative viability (NCI-H460; first compound 0.1 µM): 0.0653 | relative viability (NCI-H460; first compound 0.3162 µM): 0.0653 | relative viability (NCI-H460; first compound 1 µM): 0.0594 | relative viability (BEN; first compound 0.01 µM): 0.79 | relative viability (BEN; first compound 0.03162 µM): 0.746 | relative viability (BEN; first compound 0.1 µM): 0.653 | relative viability (BEN; first compound 0.3162 µM): 0.89 | relative viability (BEN; first compound 1 µM): 0.705 | relative viability (NCI-H1650; first compound 0.01 µM): 0.397 | relative viability (NCI-H1650; first compound 0.03162 µM): 0.374 | relative viability (NCI-H1650; first compound 0.1 µM): 0.35 | relative viability (NCI-H1650; first compound 0.3162 µM): 0.341 | relative viability (NCI-H1650; first compound 1 µM): 0.34 | relative viability (CAL-12T; first compound 0.01 µM): 1.15 | relative viability (CAL-12T; first compound 0.03162 µM): 1.16 | relative viability (CAL-12T; first compound 0.1 µM): 1.29 | relative viability (CAL-12T; first compound 0.3162 µM): 1.13 | relative viability (CAL-12T; first compound 1 µM): 1.09 | relative viability (NCI-H2023; first compound 0.01 µM): 0.284 | relative viability (NCI-H2023; first compound 0.03162 µM): 0.276 | relative viability (NCI-H2023; first compound 0.1 µM): 0.227 | relative viability (NCI-H2023; first compound 0.3162 µM): 0.249 | relative viability (NCI-H2023; first compound 1 µM): 0.161 | relative viability (NCI-H1651; first compound 0.01 µM): 0.547 | relative viability (NCI-H1651; first compound 0.03162 µM): 0.564 | relative viability (NCI-H1651; first compound 0.1 µM): 0.569 | relative viability (NCI-H1651; first compound 0.3162 µM): 0.552 | relative viability (NCI-H1651; first compound 1 µM): 0.578 | relative viability (NCI-H650; first compound 0.01 µM): 0.764 | relative viability (NCI-H650; first compound 0.03162 µM): 1.08 | relative viability (NCI-H650; first compound 0.3162 µM): 0.85 | relative viability (NCI-H650; first compound 1 µM): 0.786 | relative viability (NCI-H520; first compound 0.01 µM): 0.646 | relative viability (NCI-H520; first compound 0.03162 µM): 0.657 | relative viability (NCI-H520; first compound 0.1 µM): 0.772 | relative viability (NCI-H520; first compound 0.3162 µM): 0.623 | relative viability (NCI-H520; first compound 1 µM): 0.659 | relative viability (NCI-H2087; first compound 0.01 µM): 0.665 | relative viability (NCI-H2087; first compound 0.03162 µM): 0.633 | relative viability (NCI-H2087; first compound 0.1 µM): 0.693 | relative viability (NCI-H2087; first compound 0.3162 µM): 0.662 | relative viability (NCI-H2087; first compound 1 µM): 0.651 | relative viability (NCI-H596; first compound 0.01 µM): 0.452 | relative viability (NCI-H596; first compound 0.03162 µM): 0.521 | relative viability (NCI-H596; first compound 0.1 µM): 0.528 | relative viability (NCI-H596; first compound 0.3162 µM): 0.517 | relative viability (NCI-H596; first compound 1 µM): 0.482 | relative viability (201T; first compound 0.01 µM): 0.326 | relative viability (201T; first compound 0.03162 µM): 0.316 | relative viability (201T; first compound 0.1 µM): 0.338 | relative viability (201T; first compound 0.3162 µM): 0.397 | relative viability (201T; first compound 1 µM): 0.359 | relative viability (H3255; first compound 0.01 µM): 0.552 | relative viability (H3255; first compound 0.03162 µM): 0.617 | relative viability (H3255; first compound 0.1 µM): 0.531 | relative viability (H3255; first compound 0.3162 µM): 0.585 | relative viability (H3255; first compound 1 µM): 0.553
